Measured values: patent publication US10227339B2, “Salt form and crystal form of 1,2,5-thiadiazolidin-1,1-dioxide, preparation method thereof and intermediate” (JIANGSU KANION PARMACEUTICAL CO. LTD, priority 2015, dated 2019)
Converted amounts (≈) assume the structure as drawn. Where two headings read alike, the source gives them in different places.

Experiments:
HFMD virus EV71 = assay: EV71 in-vitro cytopathic effect (CPE) test; format: cell-based; settings: Enterovirus A, EV71, 72 h; RD cells, 3 days, CCK8 readout; read-out: EC50 by EC71 CPE test, EV71
Text: Activity Evaluation In Vitro Experimental 1: Test of EV71 In-Vitro Cytopathic Effect (CPE) Purpose of Experiment: To test the in-vitro antiviral activity and cytotoxicity of a compound to HFMD virus EV71 by means of cytopathic effect (CPE) test. Test Materials: 1. Virus strain: Shenzhen/120F1/09 2. Cell line: RD cells of human rhabdomyoma 3. Cell culture media: DMEM medium added with 10% serum, Penicillin/Streptomycin and L-Glutannine (1^×) 4. Test reagent: cellular activity test reagent CCK8 Test Method: 1. Cell inoculation: digest off the RD cells from the attached state, then dilute them with culture medium to a density of 80000/ml and inoculate 100 μl into the micro wells of the 96-well plate. 2. Dilution of Compound: Step 1: prepare the dry powder of a compound to be tested into a 10 mM solution in DMSO. Then dilute the compound by three times to eight concentration points. Dilute the reference compounds with the same method. Step 2: further dilute the diluted solution of the compound in DMSO with cell culture medium. Add 10 μl DMSO solution for each well into 240 μl culture medium. 3. Add the diluted compound solution by 50 μl each well into the 96-well plate inoculated with cells (double holes, final concentration of DMSO is 1%). 4. […] Use ELIASA to read the absorbancy at the wavelength of 450 nm and 630 nm. […]

[1] = Solubility test of crystal form A in different solvents; format: physicochemical; settings: thermodynamic from solid
Experimental: (§1) Solubility Test of Crystal Form a in Different Solvents Add 1^˜1.5 mg crystal form A of the compound 1 in volumetric flask, then single solvent or mixed solvent is added into the flask with multiple times until the solution become clear or solid particles disappear. The solubility of crystal form A in different solvents is determined thereby.

[2] = Solubility test of crystal form B in different solvents; format: physicochemical; settings: thermodynamic from solid; for solubility at 4 h: read-out: Solubility (mg/mL) 4 h; for solubility at 24 h: read-out: Solubility (mg/mL) 24 h
Experimental: as §1, with “Form B” for “Form a”, “form B” for “form A”, “compound 2” for “compound 1”

[3] = aqueous buffer, pH 3.5 buffer solution
[4] = aqueous buffer, pH 4.5 buffer solution
[5] = aqueous buffer, pH 5.5 buffer solution
[6] = aqueous buffer, pH 6.5 buffer solution
[7] = aqueous buffer, pH 6.8 buffer solution
[8] = aqueous buffer, pH 7.5 buffer solution
[9] = saline or isotonic, normal saline
[10] = simulated gastric fluid, 0.01N HCl
[11] = simulated gastric fluid, 0.1N HCl

For `CCn1nnc(-c2ccc(OCCC(C)(C)CCN3CCN(c4ccnc(N)c4)S3(=O)=O)nc2)n1` [Compound 1], the EC50 (HFMD virus EV71) was no more than 10 nM, the solubility ([1]; aqueous with cosolvent or surfactant or cyclodextrin, solvent: Acetone-water (3:1)) was less than 2240 µg/mL and the solubility ([1]; aqueous with cosolvent or surfactant or cyclodextrin, solvent: Ethanol-water (3:1)) was less than 2320 µg/mL. For the same compound, the solubility ([1]; aqueous with cosolvent or surfactant or cyclodextrin, solvent: Methanol-water (3:1)) was less than 2070 µg/mL, the solubility ([1]; organic solvent or mixture, solvent: 1,4-dioxane) was 11800 to 13200 µg/mL (≈ 23.5 to 26.3 mM) and the solubility ([1]; organic solvent or mixture, solvent: 2-Methyltetrahydrofuran) was less than 2180 µg/mL. For the same compound, the solubility ([1]; organic solvent or mixture, solvent: acetone) was 5580 to 7430 µg/mL (≈ 11.1 to 14.8 mM), the solubility ([1]; organic solvent or mixture, solvent: ethanol) was less than 2090 µg/mL and the solubility ([1]; organic solvent or mixture, solvent: ethyl acetate) was less than 2130 µg/mL. It also gave a solubility ([1]; organic solvent or mixture, solvent: methanol) of less than 1980 µg/mL.
Work on `CCn1nnc(-c2ccc(OCCC(C)(C)CCN3CCN(c4ccnc(N)c4)S3(=O)=O)nc2)n1` [Compound 2] yielded a solubility at 4 h [2, 3] of 232 mg/mL (≈ 463 mM), a solubility at 24 h [2, 3] of 186 mg/mL (≈ 370 mM) and a solubility at 4 h [2, 4] of 6.12 mg/mL (≈ 12.2 mM). For the same compound, the solubility at 24 h [2, 4] was 4.54 mg/mL (≈ 9.05 mM), the solubility at 4 h [2, 5] was less than 0.1 mg/mL and the solubility at 24 h [2, 5] was less than 0.1 mg/mL. It also gave a solubility at 4 h [2, 6] of less than 0.1 mg/mL, a solubility at 24 h [2, 6] of less than 0.1 mg/mL and a solubility at 4 h [2, 7] of less than 0.1 mg/mL. The solubility at 24 h [2, 7] was less than 0.1 mg/mL, the solubility at 4 h [2, 8] was less than 0.1 mg/mL and the solubility at 24 h [2, 8] was less than 0.1 mg/mL. It also gave a solubility at 4 h [2, 9] of 42.9 mg/mL (≈ 85.5 mM), a solubility at 24 h [2, 9] of 43.4 mg/mL (≈ 86.6 mM) and a solubility at 4 h [2, 10] greater than 998 mg/mL. For the same compound, the solubility at 24 h [2, 10] was greater than 986 mg/mL, the solubility at 4 h [2, 11] was greater than 873 mg/mL and the solubility at 24 h [2, 11] was greater than 935 mg/mL. For the same compound, the solubility at 4 h ([2]; water) was 416 mg/mL (≈ 829 mM) and the solubility at 24 h ([2]; water) was 346 mg/mL (≈ 690 mM).
